ChEMBL document CHEMBL1201862, “PubChem BioAssay data set” (2004)
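Step 1: Grow cells in 96-well plates. Step 2: Expose to compound for 48 hours at 5 concentrations. Step 3: Interpolate endpoints linearly; if unreached, use highest concentration. The concentration for 50% growth inhibition is given as GI50.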 Activity calls are given as the source filed them. Rule as the data show it: active = GI50 up to about 1.1 µM and inactive = higher.

Assays:
Assay in all cases: inhibition of tumour cell growth, NCI panel, 48 h
[1] = test system: BT-549
[2] = test system: CCRF-CEM
[3] = test system: HCT-116
[4] = test system: HL-60
[5] = test system: K562
[6] = test system: LOX IMVI
[7] = test system: MCF7
[8] = test system: MOLT-4
[9] = test system: Malme-3M
[10] = test system: NCI-H23
[11] = test system: NCI/ADR-RES
[12] = test system: OVCAR-8
[13] = test system: RXF 393
[14] = test system: SF-295
[15] = test system: SF-539
[16] = test system: SN12C
[17] = test system: SNB-19
[18] = test system: U-251
[19] = test system: UACC-257
[20] = test system: UO-31

SMILES | GI50 [1] | GI50 [2] | GI50 [3] | GI50 [4] | GI50 [5] | GI50 [6] | GI50 [7] | GI50 [8] | GI50 [9] | GI50 [10] | GI50 [11] | GI50 [12] | GI50 [13] | GI50 [14] | GI50 [15] | GI50 [16] | GI50 [17] | GI50 [18] | GI50 [19] | GI50 [20]
CC(C)=CCC/C(C)=C/CC/C(C)=C/CC/C(C)=C/C=C/C=C(\C)CC/C=C(\C)CC/C=C(\C)CCC=C(C)C | > 100 µM (inactive) | 24.6 µM (inactive) | > 92.5 µM (inactive) | 3.02 µM (inactive) | 17.2 µM (inactive) | 21.2 µM (inactive) | 44.2 µM (inactive) | 19.7 µM (inactive) | > 77.1 µM (inactive) | 68.2 µM (inactive) | 50.7 µM (inactive) | > 63 µM (inactive) | > 100 µM (inactive) | > 100 µM (inactive) | > 100 µM (inactive) | > 39.4 µM (inactive) | > 100 µM (inactive) | 63.7 µM (inactive) | > 100 µM (inactive) | 25.3 µM (inactive)
O=C(c1c(F)c(F)c(F)c(F)c1F)N1CCN(C(=O)c2c(F)c(F)c(F)c(F)c2F)C1=S | 13.6 µM (inactive) | 2.79 µM (inactive) | 2.84 µM (inactive) | 1.07 µM (active) | 1.96 µM (inactive) | 2.51 µM (inactive) | 5.43 µM (inactive) | 2.77 µM (inactive) | 4.58 µM (inactive) | 6.81 µM (inactive) | 7.33 µM (inactive) | 5.05 µM (inactive) | 2.62 µM (inactive) | 15.1 µM (inactive) | 10.8 µM (inactive) | 8.11 µM (inactive) | 16.4 µM (inactive) | 6.49 µM (inactive) | 8.34 µM (inactive) | 5.55 µM (inactive)
CCC1(CC)N=C(C(F)(F)F)c2cc(C(=O)C(F)(F)F)c3ccccc3c2N1 | 5.87 µM (inactive) | 3.67 µM (inactive) | 3.44 µM (inactive) | 2.95 µM (inactive) | 3.72 µM (inactive) | 3.64 µM (inactive) | 3.77 µM (inactive) | 2.82 µM (inactive) | 11.4 µM (inactive) | 3.24 µM (inactive) | 4.14 µM (inactive) | 3.66 µM (inactive) | 3.15 µM (inactive) | 3.14 µM (inactive) | 17.9 µM (inactive) | 3.41 µM (inactive) | 5.15 µM (inactive) | 3.64 µM (inactive) | 7.8 µM (inactive) | 3.3 µM (inactive)
COC(=O)CSSCc1ccc([N+](=O)[O-])cc1 | 19.1 µM (inactive) | 5.6 µM (inactive) | 12.2 µM (inactive) | 21.1 µM (inactive) | 29.6 µM (inactive) | 12.8 µM (inactive) | 7.33 µM (inactive) | 3.93 µM (inactive) | 29.6 µM (inactive) | 32 µM (inactive) | 20.9 µM (inactive) | 28.6 µM (inactive) | 18.4 µM (inactive) | 19 µM (inactive) | 18.2 µM (inactive) | 14.8 µM (inactive) | 26.8 µM (inactive) | 12.3 µM (inactive) | 26.5 µM (inactive) | 10.6 µM (inactive)
NC1CCC(N(CC(=O)O)CC(=O)O)C(N(CC(=O)O)CC(=O)O)C1 (stereo not given) | > 100 µM (inactive) | > 100 µM (inactive) | > 100 µM (inactive) | > 100 µM (inactive) | > 100 µM (inactive) | > 100 µM (inactive) | > 100 µM (inactive) | > 100 µM (inactive) | > 100 µM (inactive) | > 100 µM (inactive) | > 100 µM (inactive) | > 100 µM (inactive) | > 100 µM (inactive) | > 100 µM (inactive) | > 100 µM (inactive) | > 100 µM (inactive) | > 100 µM (inactive) | > 100 µM (inactive) | > 10 µM (inactive) | > 100 µM (inactive)
O=S1(=O)OCCOS(=O)(=O)C1F | 0.0293 µM (active) | > 100 µM (inactive) | > 100 µM (inactive) | > 100 µM (inactive) | > 100 µM (inactive) | > 100 µM (inactive) | > 100 µM (inactive) | > 100 µM (inactive) | > 100 µM (inactive) | > 100 µM (inactive) | > 100 µM (inactive) | > 100 µM (inactive) | > 100 µM (inactive) | > 100 µM (inactive) | 43.6 µM (inactive) | > 100 µM (inactive) | > 100 µM (inactive) | > 100 µM (inactive) | > 100 µM (inactive) | > 100 µM (inactive)
